The values that follow come from patent publication EP0103895A2, “Novel hydroxylamine derivatives, production and use thereof” (MEIJI SEIKA KABUSHIKI KAISHA, priority 1982, dated 1984).

In experiment [1] the test system is fowl roundworm (Ascaridia galli). The experiment can be described thus: Anthelmintic test in chickens artificially infected with fowl roundworm, single oral dose in gelatin capsule, worm bodies counted within 48 hours (Test Examples A1, B1, C1, D1). Particulars: for inhibition in vivo at 30 mg/kg / inhibition in vivo at 50 mg/kg / inhibition in vivo at 15 mg/kg: Ascaridia galli, po, 48 h, read-out: Anthelmintic effect after 48 hours. The experiment is classed as in vivo. Here is the method: Chickens infected artificially with fowl roundworm (Ascaridia galli) were employed in groups each consisting of three chickens. Fecal matter testing was conducted before administration of medicine to confirm infection with the worm. The quantity of the compound provided for testing was 10 mg and 20 mg per Kg of body weight, which was orally administered each in a gelatin capsule to the chicken. The number of worm bodies discharged within 48 hours after administration of medicine was counted, the chicken was killed after 48 hours and the number of worm bodies remaining in the enteron was counted to determine the anthelmintic percentage, wherefrom the antihelmintic effect was judged.
The same as that in Test Example Al.
The same as that in Test Example Al except that the compound provided for testing was in quantities of 30 mg and 50 mg per Kg of body weight, which were orally administered to the chickens in gelatin capsules.
The same as that in Test Example Al, except that the compounds provided for testing were used in quantities of 15 mg and 30 mg per Kg of body weight, which were orally administered each in a gelatin capsule to the chicken.

The subject of experiment [2] is fowl roundworm (As. galli). The experiment can be described thus: Anthelmintic test in chickens artificially infected with fowl roundworm, compound added to feed, E.P.G. and worm count up to 21st day (Test Examples A2, B2, C2, D2). Particulars: for inhibition in vivo at 20 ppm / inhibition in vivo at 50 ppm / inhibition in vivo at 25 ppm: Ascaridia galli, 504 h, read-out: Anthelmintic effect; for Change of E.P.G. Before administration: baseline. It is filed as in vivo, Ascaridia galli. Here is the method: Chickens artificially infected with fowl roundworm (As. galli) were employed in groups each of two chickens.
Fecal matter testing was conducted before initiation of the test and on the 7th, 14th and 21st day after initiation of the test. Reduction in worm egg number was examined by calculating E.P.G. (worm eggs per 1 g of fecal matter), and the number of discharged worm bodies and the number of worm bodies remaining in the enteron when the chicken was killed on 21st day were counted to determine the anthelmintic percentage, from which the anthelmintic effect was judged.

Setting [3] is: chickens, 30 mg/Kg orally in gelatin capsule, one value per chicken (No.1-3).
Where [4] appears, read: chickens, 50 mg/Kg orally in gelatin capsule, one value per chicken (No.1-3).
[5] abbreviates: po, chickens, 20 ppm added to feed, worm count on 21st day, one value per chicken.
Setting [6] is: po, chickens, 50 ppm added to feed, worm count on 21st day, one value per chicken.
Where [7] appears, read: chickens, 20 ppm added to feed, one value per chicken.
The mark [8] stands for this setting: chickens, 50 ppm added to feed, one value per chicken.
[9] abbreviates: chicken, 30 mg/Kg oral in gelatin capsule, chickens No.1-3.
Where [10] appears, read: chicken, 50 mg/Kg oral in gelatin capsule, chickens No.1-3.
Setting [11] is: feed or water, chicken, 25 ppm in feed.
[12] abbreviates: feed or water, chicken, 50 ppm in feed.
[13] abbreviates: chicken, 15 mg/Kg oral in gelatin capsule, chickens No.1-3.

“And” between values parts separate entries of the source, which are not always exact repeats. Equal entries are not always repeated. Where two headings read alike, the source gives them in different places.

Turning to `C=CCN(OC)C(=O)CC` [Compound B2, N-allyl-N-propionyl-O-methylhydroxylamine], the inhibition in vivo at 30 mg/kg in experiment [1] (setting [3]) is 100%. For the same compound, the inhibition in vivo at 50 mg/kg in experiment [1] (setting [4]) was 100%. In experiment [2] (setting [5]), the inhibition in vivo at 20 ppm is 80 to 90%. The inhibition in vivo at 50 ppm in experiment [2] (setting [6]) was 100%.
Turning to `C=CCN(OC)C(=O)CCC` [Compound B3, N-allyl-N-butylyl-O-methylhydroxylamine], the “Anthelmintic effect after 48 hours” value in experiment [1] (setting [3]) and in experiment [1] (setting [4]) was “+++ (100%)” in each case. In addition, the anthelmintic effect result in experiment [2] (chickens, 20 ppm added to feed, worm count on 21st day, one value per chicken) is listed as “++ (80 - 90%)”; in experiment [2] (chickens, 50 ppm added to feed, worm count on 21st day, one value per chicken), “+++ (100%)”. Moreover, the “Change of E.P.G. Before administration” value in experiment [2] (setting [7]) is 5,600 E.P.G. and 7,900 E.P.G; in experiment [2] (setting [8]), 10,700 E.P.G. and 14,300 E.P.G. Further, in experiment [2] (setting [7]), the “Change of E.P.G. 7th day” value is 3.100 E.P.G. and 3,000 E.P.G. The “Change of E.P.G. 21st day” value in experiment [2] (setting [8]) is listed as 0 E.P.G.
Turning to `C=CCN(OC)C(=O)CCCCCCC/C=C\CCCCCCCC` [Compound B4, N-allyl-N-oleoyl-O-methylhydroxylamine], the inhibition in vivo at 30 mg/kg in experiment [1] (setting [3]) stood at 100%. In experiment [1] (setting [4]), the inhibition in vivo at 50 mg/kg worked out at 100%. Also, the inhibition in vivo at 20 ppm in experiment [2] (setting [5]) turned out to be 100%. For the same compound, the inhibition in vivo at 50 ppm in experiment [2] (setting [6]) was 100%.
As to `C=CCN(C=O)OC` [Compound B6, N-allyl-N-formyl-O-methylhydroxylamine], in experiment [1] (setting [3]), the inhibition in vivo at 30 mg/kg is 100%. The inhibition in vivo at 50 mg/kg in experiment [1] (setting [4]) is 100%. Further, the inhibition in vivo at 20 ppm in experiment [2] (setting [5]) fell in the range of 80 to 90%. Also, the inhibition in vivo at 50 ppm in experiment [2] (setting [6]) stood at 100%.
Consider `CC=CCN(OC)C(C)=O` [Compound B7, N-crotyl-N-acetyl-O-methylhydroxylamine], for which the inhibition in vivo at 30 mg/kg in experiment [1] (setting [3]) came to 100%. Also, the inhibition in vivo at 50 mg/kg in experiment [1] (setting [4]) amounted to 100%.
With `C=CCN(OCC)C(=O)CCC` [Compound B10, N-allyl-N-butylyl-0-ethylhydroxylamine], in experiment [1] (setting [3]), the inhibition in vivo at 30 mg/kg is 100%. Moreover, the inhibition in vivo at 50 mg/kg in experiment [1] (setting [4]) stood at 100%.
As for `C=CCN(OCC)C(=O)CC(C)C` [Compound B11, N-allyl-N-isovaleroyl-O-ethylhydroxylamine], the inhibition in vivo at 30 mg/kg in experiment [1] (setting [3]) turned out to be 100%. In experiment [1] (setting [4]), the inhibition in vivo at 50 mg/kg was determined as 100%.
As for `C=CCN(OCC)C(=O)CCCCCCCCCCCCCCCCC` [Compound B12, N-allyl-N-stearoyl-O-ethylhydroxylamine], the inhibition in vivo at 30 mg/kg in experiment [1] (setting [3]) was 100%. Moreover, the inhibition in vivo at 50 mg/kg in experiment [1] (setting [4]) stood at 100%.
`C=CCN(OCC)C(=O)c1ccccc1` [Compound B13, N-allyl-N-benzoyl-0-ethylhydroxylamine]: in experiment [1] (setting [3]), the inhibition in vivo at 30 mg/kg came to 100%. Also, the inhibition in vivo at 50 mg/kg in experiment [1] (setting [4]) amounted to 100%.
As for `C=CCN(OCC)C(=O)c1ccc(F)cc1` [Compound B14, N-allyl-N-(p-fluorobenzoyl)-O-ethylhydroxylamine], the inhibition in vivo at 30 mg/kg in experiment [1] (setting [3]) came to 100%. Moreover, in experiment [1] (setting [4]), the inhibition in vivo at 50 mg/kg came to 100%.
Consider `C=CCN(C=O)OCC` [Compound B15, N-allyl-N-formyl-O-ethylhydroxylamine], for which the inhibition in vivo at 30 mg/kg in experiment [1] (setting [3]) is 100%. For the same compound, in experiment [1] (setting [4]), the inhibition in vivo at 50 mg/kg is 100%. Besides, the inhibition in vivo at 20 ppm in experiment [2] (setting [5]) was in the range of 80 to 90%. Further, the inhibition in vivo at 50 ppm in experiment [2] (setting [6]) was 100%.
In the case of `CC=CCN(OCC)C(C)=O` [Compound B16, N-crotyl-N-acetyl-O-ethylhydroxylamine], the inhibition in vivo at 30 mg/kg in experiment [1] (setting [3]) came out at 100%. For the same compound, in experiment [1] (setting [4]), the inhibition in vivo at 50 mg/kg is 100%. Besides, the inhibition in vivo at 20 ppm in experiment [2] (setting [5]) is 100%. For the same compound, the inhibition in vivo at 50 ppm in experiment [2] (setting [6]) turned out to be 100%.
Turning to `C=CCN(OCCC)C(C)=O` [Compound B17, N-allyl-N-acetyl-O-propylhydroxylamine], the inhibition in vivo at 30 mg/kg in experiment [1] (setting [3]) was found to be 100%. Besides, the inhibition in vivo at 50 mg/kg in experiment [1] (setting [4]) worked out at 100%. Further, the inhibition in vivo at 20 ppm in experiment [2] (setting [5]) lay within 80 to 90%. Besides, in experiment [2] (setting [6]), the inhibition in vivo at 50 ppm came to 100%.
`C=CCN(OCCCC)C(C)=O` [Compound B18, N-allyl-N-acetyl-0-butylhydroxylamine]: the inhibition in vivo at 30 mg/kg in experiment [1] (setting [3]) worked out at 100%. Besides, the inhibition in vivo at 50 mg/kg in experiment [1] (setting [4]) amounted to 100%. The inhibition in vivo at 20 ppm in experiment [2] (setting [5]) was 100%. For the same compound, in experiment [2] (setting [6]), the inhibition in vivo at 50 ppm came out at 100%.
For `C=CCON(CC=C)C(=O)CCCCCCCCCCCCCCCCC` [Compound C5], the inhibition in vivo at 30 mg/kg in experiment [1] (setting [9]) was in the range of 80 to 90%. The inhibition in vivo at 50 mg/kg in experiment [1] (setting [10]) was in the range of 80 to 90%. In addition, the inhibition in vivo at 25 ppm in experiment [2] (setting [11]) is 80 to 90%. For the same compound, in experiment [2] (setting [12]), the inhibition in vivo at 50 ppm was found to be 100%.
Turning to `C=CCON(C=O)CC=C` [Compound C8], in experiment [1] (setting [9]), the inhibition in vivo at 30 mg/kg was determined as 100%. Also, the inhibition in vivo at 50 mg/kg in experiment [1] (setting [10]) was 100%. Also, the inhibition in vivo at 25 ppm in experiment [2] (setting [11]) turned out to be 100%. In addition, the inhibition in vivo at 50 ppm in experiment [2] (setting [12]) worked out at 100%. In addition, the “Change of E.P.G. 21st day” value in experiment [2] (chicken, 25 ppm in feed) turned out to be 0; in experiment [2] (chicken, 50 ppm in feed) it was 0.
`C=CCNOCCC` [Compound D2, N-allyl-0-propylhydroxylamine]: in experiment [1] (setting [9]), the inhibition in vivo at 30 mg/kg was 100%. In experiment [2] (setting [11]), the inhibition in vivo at 25 ppm lay within 80 to 90%. Besides, the inhibition in vivo at 50 ppm in experiment [2] (setting [12]) is 100%.
Consider `C=CCNOCC=C` [Compound D4], for which, in experiment [1] (setting [13]), the inhibition in vivo at 15 mg/kg was in the range of 80 to 90%. Moreover, the inhibition in vivo at 30 mg/kg in experiment [1] (setting [9]) came to 100%. The inhibition in vivo at 25 ppm in experiment [2] (setting [11]) lay in the range of 80 to 90%. Moreover, in experiment [2] (setting [12]), the inhibition in vivo at 50 ppm was determined as 100%.
Take `C#CCONCC=C` [Compound D5]: in experiment [1] (setting [13]), the inhibition in vivo at 15 mg/kg turned out to be 100%. Moreover, in experiment [1] (setting [9]), the inhibition in vivo at 30 mg/kg came to 100% and the “Anthelmintic effect after 48 hours” value is reported as “+++ (100%)”. Further, in experiment [1] (chicken, 15 mg/Kg oral in gelatin capsule, chickens No.1-3, 15 mg/kg), the “Anthelmintic effect after 48 hours” value is listed as “+++ (100%)”. The inhibition in vivo at 25 ppm in experiment [2] (setting [11]) was 80 to 90%. Further, in experiment [2] (setting [12]), the inhibition in vivo at 50 ppm turned out to be 100%.
In the case of `CC=CCNOCC` [Compound D7], the inhibition in vivo at 30 mg/kg in experiment [1] (setting [9]) is 100%.
As for `C=CCONCC=CC` [Compound D8], in experiment [1] (setting [13]), the inhibition in vivo at 15 mg/kg lay in the range of 80 to 90%. Moreover, the inhibition in vivo at 30 mg/kg in experiment [1] (setting [9]) stood at 100%.
As to `C#CCNOCCC` [Compound D11], the inhibition in vivo at 30 mg/kg in experiment [1] (setting [9]) turned out to be 100%.
